Values after ≈ are worked out from the molar mass of the structure shown. A value given as a limit tells only on which side of the number the result lay.

What all share (format): functional
Test [1] concerns Mycobacterium tuberculosis. Put plainly: Antitubercular activity against Mycobacterium tuberculosis H37Rv after 10 days by tube dilution method. The conditions noted are these: 240 h.
Test [2] concerns Mycobacterium tuberculosis. Put plainly: Antimycobacterial activity against human sensitive Mycobacterium tuberculosis measured after six weeks.
The test system of test [3] is Mycobacterium tuberculosis. Put plainly: Antimycobacterial activity against Bovin sensitive Mycobacterium tuberculosis measured after six weeks.
Test [4] has as its system Mycobacterium tuberculosis. Put plainly: Antitubercular activity against Mycobacterium tuberculosis H37Rv.
Test [5] concerns Mycobacterium tuberculosis. Put plainly: Antimycobacterial activity against Mycobacterium tuberculosis H37Rv ATCC 27294 at < 0.1 ug/mL by microplate alamar blue assay. In general terms: The colour change of resazurin is a common sign of viable cells or microbes.
Test [6] has as its system Mycobacterium tuberculosis. Briefly: Antimycobacterial activity against Mycobacterium tuberculosis H37Rv after 10 to 12 days by serial dilution method.
In test [7] the test system is Mycolicibacterium fortuitum. Briefly: Antimycobacterial activity against Mycobacterium fortuitum by serial dilution method.
Test [8] deals with Mycobacterium intracellulare. Put plainly: Antimycobacterial activity against Mycobacterium intracellulare by serial dilution method.
For test [9], the system named is Mycobacterium kansasii. Briefly: Antimycobacterial activity against Mycobacterium kansasii by serial dilution method.
The test system of test [10] is Mycobacterium avium. Briefly: Antimycobacterial activity against Mycobacterium avium by serial dilution method.
Test [11] has as its system Mycolicibacterium phlei. Briefly: Antimycobacterial activity against Mycobacterium phlei by serial dilution method.
Test [12] has as its system Mycolicibacterium smegmatis. Briefly: Antimycobacterial activity against Mycobacterium smegmatis ATCC 607 by serial dilution method.
Test [13] concerns Mycobacterium tuberculosis. Briefly: Potency index, ratio of pyrazinamide MIC to compound MIC for Mycobacterium tuberculosis H37Rv.
Test [14] has as its system Mycobacterium tuberculosis. Put plainly: Antimycobacterial activity against Mycobacterium tuberculosis H37Rv by NCCLS method.
In test [15] the test system is Mycobacterium tuberculosis. Put plainly: Antimycobacterial activity against Mycobacterium tuberculosis H37Rv after 5 days by microplate alamar blue assay. The conditions noted are these: 120 h.
Test [16] concerns Mycobacterium tuberculosis. Put plainly: Antimycobacterial activity against Mycobacterium tuberculosis H37Rv ATCC 27294 measured after 5 to 8 days.
Test [17] concerns Mycobacterium tuberculosis. Briefly: Growth inhibition of Mycobacterium tuberculosis H37Rv ATCC 27294 measured after 5 to 8 days.
The test system of test [18] is Mycobacterium tuberculosis. Briefly: Antimycobacterial activity against Mycobacterium tuberculosis clinical isolate 1889 by broth dilution method. (In general: Broth dilution looks for growth in wells or tubes with falling amounts of substance.)
The subject of test [19] is Mycobacterium tuberculosis. Put plainly: Antimycobacterial activity against Mycobacterium tuberculosis H37Rv by serial dilution method.
Test [20] deals with Mycobacterium tuberculosis. Briefly: Antimycobacterial activity against Mycobacterium tuberculosis Academia by serial dilution method.
Test [21] deals with Mycobacterium tuberculosis. Put plainly: Antimycobacterial activity against Mycobacterium tuberculosis infected in C57BL/6 mouse assessed as colony forming units per lung at 25 mg/kg administered via gavage for 2 days measured last post dose (reference value: 6.53 +/- 0.16 log10CFU).
The subject of test [22] is Mycobacterium tuberculosis. Briefly: Antimycobacterial activity against Mycobacterium tuberculosis clinical isolate 303 by broth dilution method.
Test [23] concerns Mycobacterium tuberculosis. Put plainly: Antimycobacterial activity against Mycobacterium tuberculosis clinical isolate 35829 by broth dilution method.

In general, MIC refers to the smallest concentration in the dilution series that meets the test's criterion for growth inhibition. A low value points to inhibition by little substance. Take `O=C(NNc1nc(Cl)nc(NNC(=O)c2ccncc2)n1)c1ccncc1`: in [1], the MIC amounted to 20 µg/mL (≈ 51.8 µM).
For `O=C(N/N=C1\C(=O)N(Cc2ccccc2)c2ccccc21)c1ccncc1`, the MIC in test [2] and in test [3] was 2.7 to 3.5 µg/mL (≈ 7.58 to 9.82 µM) throughout.
In turn, `O=C(NN1C(=O)C(Cl)C1c1cc2ccccc2nc1Cl)c1ccncc1` (configuration not stated) returned an MIC in test [4] of 12.5 µg/mL.
`C[C@]12CC/C(=N\NC(=O)c3ccncc3)C=C1CC[C@@H]1[C@@H]2CC[C@]2(C)/C(=N/NC(=O)c3ccncc3)CC[C@@H]12`: in [5], the “inhibition (INH)” value was >95%.
Take `Cc1ccc2nc(Cl)c(C3C(Cl)C(=O)N3NC(=O)c3ccncc3)cc2c1` (configuration not stated): the MIC in test [4] was 12.5 µg/mL.
In test [6], `C[C@]12CC[C@H]3[C@@](CC[C@@H]4[C@]3(C)CCC[C@@]4(C)C(=O)O)(C/C1=N/NC(=O)c1ccncc1)C2` returned an MIC of 10 to 20 µg/mL (≈ 22.9 to 45.7 µM).
Take `C[C@]12CC[C@@H](O)C[C@@H]1CC[C@@H]1[C@@H]2CC[C@]2(C)/C(=N/NC(=O)c3ccncc3)CC[C@@H]12`: the MIC in [7], in [8], in test [9], in test [10], in test [11] and in [12] was 3.5 to 1000 µg/mL (≈ 8.55 to 2440 µM) each time.
Take `Cc1c(C(=O)NNC(=O)c2ccncc2)nn(-c2ccc(Cl)cc2Cl)c1-c1ccc(Cl)cc1`: the Ratio in test [13] came out at 2. For the same compound, the MIC in [14] amounted to 12.5 µg/mL (≈ 25 µM).
In turn, `COc1nc2ccc(Cl)cc2cc1C1C(Cl)C(=O)N1NC(=O)c1ccncc1` (configuration not stated) showed an MIC in test [4] of 3.12 to 6.25 µg/mL.
As for `COc1cc(C2SCC(=O)N2NC(=O)c2ccccc2)ccc1O` (configuration not stated), inhibition of growth in test [15] (MIC) required 0.31 µg/mL (≈ 0.9 µM).
Compound `O=C(NNc1nc(Cl)nc(NC(=O)c2cnccn2)n1)c1ccncc1` yielded an MIC in test [1] of 20 µg/mL (≈ 53.8 µM).
In the case of `CCn1cc(C(=O)O)c(=O)c2cc(F)c(N3CCN(CN4C(=O)/C(=N\NC(=O)c5ccncc5)c5ccccc54)CC3)cc21`, in test [16], the MIC is < 6.25 µg/mL. In test [17], the “growth inhibition (GI)” value is 100%.
As to `C=C1C[C@]23CC[C@@H]4[C@](C)(CCC[C@@]4(C)C(=O)O)[C@H]2CC[C@]1(O[C@@H]1O[C@H](CO)[C@@H](O)[C@H](O)[C@H]1O[C@@H]1O[C@H](CO)[C@@H](O)[C@H](O)[C@H]1O)C3`, the MIC in test [6] lay in the range of 3.75 to 5 µg/mL (≈ 5.83 to 7.78 µM).
Still for that read-out and setting: the result for `C=C1C[C@]23CC[C@@H]4[C@](C)(CCC[C@@]4(C)C(=O)NNc4cccnc4)[C@H]2CC[C@]1(O[C@@H]1O[C@H](COC(C)=O)[C@@H](OC(C)=O)[C@H](OC(C)=O)[C@H]1O[C@@H]1O[C@H](COC(C)=O)[C@@H](OC(C)=O)[C@H](OC(C)=O)[C@H]1O)C3` reads 10 µg/mL (≈ 10.1 µM).
Take `C[C@]12CC=CC[C@@H]1CC[C@@H]1[C@@H]2CC[C@]2(C)/C(=N/NC(=O)c3ccncc3)CC[C@@H]12`: the “inhibition (INH)” value in test [5] is >95%.
With `COc1ccc(/C=C2\SC(=O)N(CNNC(=O)c3ccncc3)C2=O)cc1`, the MIC in test [4] lay in the range of 50 to 100 µg/mL.
Still for that read-out and setting: as for `COc1nc2ccc(C)cc2cc1C1C(Cl)C(=O)N1NC(=O)c1ccncc1` (configuration not stated), the figure is 3.12 to 6.25 µg/mL.
For `CC[C@@H](CO)NCCN[C@@H](CC)CO` [ETHAMBUTOL], in test [14], the MIC was determined as 3.25 µg/mL (≈ 15.9 µM).
With `COc1c(N2CCNC(C)C2)c(F)cc2c(=O)c(C(=O)O)cn(C3CC3)c12` (configuration not stated) [GATIFLOXACIN], the MIC in test [4] is 3.12 µg/mL.
Turning to `NNC(=O)c1ccncc1` [ISONIAZID], the minimum inhibitory concentration (MIC) in test [16] is 0.025 to 0.05 µg/mL (≈ 0.182 to 0.365 µM); in test [4], 1.45 µM; in test [18], 4 to 8 µg/mL (≈ 29.2 to 58.3 µM); in test [19] it was 0.015 to 0.06 µg/mL (≈ 0.109 to 0.438 µM); in [6], 0.1 µg/mL (≈ 0.729 µM); in test [20], 0.015 to 0.06 µg/mL (≈ 0.109 to 0.438 µM). Further, the MIC was 1.4 µg/mL (≈ 10.2 µM) in test [2]; 0.05 µg/mL (≈ 0.365 µM) in test [14]; 1.4 µg/mL (≈ 10.2 µM) in [3]; 0.2 µg/mL (≈ 1.46 µM) in test [15]; 4 to 8 µg/mL (≈ 29.2 to 58.3 µM) in [22]; 4 to 8 µg/mL (≈ 29.2 to 58.3 µM) in test [23]. The “growth inhibition (GI)” value in [17] is 95%. Further, in test [21], the Activity was found to be 5.34 log10CFU.
As for `NC(=O)c1cnccn1` [PYRAZINAMIDE], the values for the MIC in test [6] and in test [14] were 20 µg/mL (≈ 162 µM) and 50 µg/mL (≈ 406 µM), respectively.
For `CO[C@H]1/C=C/O[C@@]2(C)Oc3c(C)c(O)c4c(O)c(c(/C=N/N5CCN(C)CC5)c(O)c4c3C2=O)NC(=O)/C(C)=C\C=C\[C@H](C)[C@H](O)[C@@H](C)[C@@H](O)[C@@H](C)[C@H](OC(C)=O)[C@@H]1C` [RIFAMPIN], the MIC in test [16] stood at 0.25 µg/mL (≈ 0.304 µM); in test [14], 0.1 µg/mL (≈ 0.122 µM); in test [15], 1 µg/mL (≈ 1.22 µM). In test [17], the “growth inhibition (GI)” value was 86%.

Source of the values: ChEMBL document CHEMBL4052616, “Isoniazid derivatives and their anti-tubercular activity” (Eur J Med Chem, 2017).
